Assay results published in US6423730B1, “Method to control termites” (Dow AgroSciences LLC, priority 1999, dated 2002).

What was measured:
Reticulitermes = test: AWPA E1-97 treated southern yellow pine wood block termite test; type: in vivo; conditions: treated southern yellow pine wood blocks, four weeks
Description: Compounds of Formula I were evaluated using standard evaluation methodology as prescribed by the American Wood Preservers Association Standard AWPA E1-97, incorporated herein by reference, using a species of the destructive termite, Reticulitermes.
In this test replicate containers containing damp sand and southern yellow pine wood blocks treated with the compound are used. Termites are introduced into the test container and after four weeks the containers are disassembled and the wood blocks are evaluated for termite damage. Termite mortality is also evaluated.

Reticulitermes lalvipes = test: Treated filter pad and pine wood chip petri dish termite kill test; type: in vivo; conditions: 8 days after treatment, 13° C.
Description: Subterranean worker termites, Reticulitermes lalvipes, were purchased from Carolina Biological Supply Co. The insects were stored with their shipping material, decayed wood chips and moist paper towels, in an unlit growth chamber at 13° C. for three days prior to start of the test. This delay was to acclimate the termites to the test conditions as well as to eliminate weak individuals.
The compounds tested, 100 mg each, were dissolved in 10 mL of pure ethanol (dehydrated, 200 proof) to provide a solution of 10,000 ppm. The solution was serial diluted by 10× to achieve dilutions of 1,000, 100, 10, and 1 ppm. A pure cellulose fiber filter pad was soaked with 1 mL of each test sample and placed into a Falcon petri dish (50×9 mm sterile polystyrene). In addition, a pine wood chip, approximately 12×12×4 mm was dipped into the test solution for 30 seconds and placed on the filter paper. Solvent from the treated filters and wood chips was then allowed to evaporate for 24 hours. The next day, five termites were placed on the filter pad and the upper lid of the petri plate was secured. Three replications were used for each treatment.
The termites in the petri dishes were returned to the growth chamber at 13° C. The humidity was high enough to allow for condensation on the upper plate surface, which provided water for the termites. The petri dishes were briefly removed from the chamber at 2, 4, and 8 days after treatment to count the number of live termites. Data was expressed as the percentage of control (kill) of termites.

SMILES | Minimum Retention Preventing Termite Attack (Reticulitermes) [kg/m^3] | Control (% kill at 8 days) (Reticulitermes lalvipes; dose 1 ppm) [%] | Control (% kill at 8 days) (Reticulitermes lalvipes; dose 10 ppm) [%] | Control (% kill at 8 days) (Reticulitermes lalvipes; dose 100 ppm) [%] | Control (% kill at 8 days) (Reticulitermes lalvipes; dose 1,000 ppm) [%] | Control (% kill at 8 days) (Reticulitermes lalvipes; dose 10,000 ppm) [%]
CCOP(=S)(OCC)Oc1nc(Cl)c(Cl)cc1Cl [Comparative, chlorpyrifos, reference compound] | >0.160 |  |  |  |  | 
O=C(Nc1cc(Cl)c(Cl)c(Cl)c1)c1sc(C(F)(F)F)nc1C(F)(F)F [Compound 4] |  | 77 | 47 | 33 | 73 | 100
O=C(Nc1c(Br)cc(OC(F)(F)F)cc1Br)c1sc(C(F)(F)F)nc1C(F)(F)F [Compound 5] | 0.768 |  |  |  |  | 
O=C(Nc1ccc(Cl)c(Cl)c1Cl)c1sc(C(F)(F)F)nc1C(F)(F)F [Compound 6] |  | 33 | 27 | 53 | 100 | 100
O=C(Nc1cc(Cl)c(Cl)cc1Cl)c1sc(C(F)(F)F)nc1C(F)(F)F [Compound 7] |  | 73 | 60 | 87 | 100 | 100
O=C(Nc1ccc(Cl)cc1Cl)c1sc(C(F)(F)F)nc1C(F)(F)F [Compound 8] |  | 7 | 0 | 0 | 20 | 100
O=C(Nc1cc(Cl)ccc1Cl)c1sc(C(F)(F)F)nc1C(F)(F)F [Compound 9] |  | 27 | 40 | 20 | 53 | 100
O=C(Nc1c(Cl)cccc1Cl)c1sc(C(F)(F)F)nc1C(F)(F)F [Compound 10] |  | 7 | 0 | 0 | 67 | 73
O=C(Nc1cc(Cl)cc(Cl)c1)c1sc(C(F)(F)F)nc1C(F)(F)F [Compound 11] |  | 0 | 7 | 13 | 13 | 67
